This is an account of results in patent US8188078B2 (Sanofi-Aventis, priority 2007, dated 2012).

One series has as its target T1, MET (Homo sapiens, UniProt P08581).
T1 construct: endogenous in cells; host or cells: MKN45 cells
As to the kind of experiment: Test C: inhibition of the autophosphorylation of MET, ELISA technique (pppY1230, 1234, 1235), MKN45 cells. The class given is cell-based. In short, it runs like this:
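MKN45 cells adhered 24 h, then treated 1 h with compound at 6 concentrations in duplicate, final range 10000 to 30 nM. Lysates assayed by phospho-MET (pY1230/1234/1235) sandwich ELISA with HRP chromogen read at 450 nm.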

T1 sequence (P08581 25-1390): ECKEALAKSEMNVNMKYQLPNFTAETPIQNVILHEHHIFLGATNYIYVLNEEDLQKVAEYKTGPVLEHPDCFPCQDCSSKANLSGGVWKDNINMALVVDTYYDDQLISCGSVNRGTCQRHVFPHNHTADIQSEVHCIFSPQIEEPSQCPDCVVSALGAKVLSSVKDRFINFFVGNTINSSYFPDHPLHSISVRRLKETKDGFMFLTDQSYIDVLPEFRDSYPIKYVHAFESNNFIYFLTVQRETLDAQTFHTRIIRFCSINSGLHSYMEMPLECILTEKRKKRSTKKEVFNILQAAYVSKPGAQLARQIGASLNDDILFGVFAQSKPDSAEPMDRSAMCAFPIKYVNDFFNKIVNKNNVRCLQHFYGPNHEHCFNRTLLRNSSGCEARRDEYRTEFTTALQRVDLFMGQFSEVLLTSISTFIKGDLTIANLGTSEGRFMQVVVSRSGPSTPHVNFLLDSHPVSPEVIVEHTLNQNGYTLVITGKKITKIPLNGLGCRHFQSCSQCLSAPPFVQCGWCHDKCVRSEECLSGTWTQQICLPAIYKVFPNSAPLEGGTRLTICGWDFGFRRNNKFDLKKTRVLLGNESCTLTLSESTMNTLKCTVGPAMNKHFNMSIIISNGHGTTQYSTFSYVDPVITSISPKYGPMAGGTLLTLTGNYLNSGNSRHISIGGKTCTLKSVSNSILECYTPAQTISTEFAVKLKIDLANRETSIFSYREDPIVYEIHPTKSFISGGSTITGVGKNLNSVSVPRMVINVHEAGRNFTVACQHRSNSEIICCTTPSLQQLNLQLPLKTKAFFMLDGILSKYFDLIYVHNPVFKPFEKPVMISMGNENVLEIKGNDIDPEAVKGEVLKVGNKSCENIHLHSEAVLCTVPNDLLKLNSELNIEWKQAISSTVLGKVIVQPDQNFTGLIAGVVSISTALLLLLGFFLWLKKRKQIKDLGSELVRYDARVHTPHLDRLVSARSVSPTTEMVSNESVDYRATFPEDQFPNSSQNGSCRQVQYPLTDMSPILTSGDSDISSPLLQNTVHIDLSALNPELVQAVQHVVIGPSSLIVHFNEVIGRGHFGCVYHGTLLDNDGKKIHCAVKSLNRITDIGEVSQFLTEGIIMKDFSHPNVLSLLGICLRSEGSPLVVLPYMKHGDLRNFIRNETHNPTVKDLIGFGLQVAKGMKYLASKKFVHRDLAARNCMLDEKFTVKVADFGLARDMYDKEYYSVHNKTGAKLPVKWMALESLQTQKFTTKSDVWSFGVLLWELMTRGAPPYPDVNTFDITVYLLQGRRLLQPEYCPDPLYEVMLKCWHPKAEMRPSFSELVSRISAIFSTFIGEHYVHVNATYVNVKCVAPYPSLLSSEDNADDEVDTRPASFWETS

`CC(Oc1cc2sc(NC(=O)CN3CCNCC3)nc2cc1F)c1c(Cl)ccc(F)c1Cl` (stereo not shown) [Example 69, N-{6-[1-(2,6-dichloro-3-fluorophenyl)ethoxy]-5-fluoro-1,3-benzothiazol-2-yl}-2-(piperazin-1-yl)acetamide] had a melting point of 188 to 190 °C. The same molecule yielded a 50% inhibitory concentration (IC50) against MET below 0.5 µM.
For `CCN1CCN(CCNC(=O)Nc2nc3cc(F)c(OC(C)c4c(Cl)ccc(F)c4Cl)cc3s2)CC1` (stereo not shown) [Example 100, 1-{6-[1-(2,6-dichloro-3-fluorophenyl)ethoxy]-5-fluoro-1,3-benzothiazol-2-yl}-3-[2-(4-ethylpiperazin-1-yl)ethyl]urea] the same measures were 150 to 152 °C and below 0.5 µM.
For `CC(Oc1cc2sc(NC(=O)NCCOCC3CC3)nc2cc1F)c1c(Cl)ccc(F)c1Cl` (stereo not shown) [Example 103, 1-[2-(cyclopropylmethoxy)ethyl]-3-{6-[1-(2,6-dichloro-3-fluorophenyl)ethoxy]-5-fluoro-1,3-benzothiazol-2-yl}urea], the melting point was 178 to 184 °C. The IC50 against MET lay in the range of 0.5 to 10 µM.
Molecule `COCCCNC(=O)Nc1nc2cc(F)c(OC(C)c3c(Cl)ccc(F)c3Cl)cc2s1` (stereo not shown) [Example 104, 1-{6-[1-(2,6-dichloro-3-fluorophenyl)ethoxy]-5-fluoro-1,3-benzothiazol-2-yl}-3-(3-methoxypropyl)urea] returned a melting point of 175 °C. This molecule also displayed a half-maximal inhibitory concentration (IC50) on MET below 0.5 µM.
As for `CC(Oc1cc2sc(NC(=O)NCCCO)nc2cc1F)c1c(Cl)ccc(F)c1Cl` (stereo not shown) [Example 105, 1-{6-[1-(2,6-dichloro-3-fluorophenyl)ethoxy]-5-fluoro-1,3-benzothiazol-2-yl}-3-(3-hydroxypropyl)urea], the melting point is 158 °C. The molecule further came in with an IC50 at MET below 0.5 µM.
`CC(Oc1cc2sc(NC(=O)NCCN3CCOCC3)nc2cc1Cl)c1c(Cl)ccc(F)c1Cl` (stereo not shown) [Example 106, 1-{5-chloro-6-[1-(2,6-dichloro-3-fluorophenyl)ethoxy]-1,3-benzothiazol-2-yl}-3-[2-(morpholin-4-yl)ethyl]urea]: the melting point lay in the range of 196 to 198 °C. Moreover, the IC50 on MET lay in the range of 0.5 to 10 µM.
Molecule `CC(Oc1ccc2nc(NC(=O)NCCN3CCN(C)CC3)sc2c1)c1c(F)ccc(Cl)c1Cl` (stereo not shown) [Example 108, 1-{6-[1-(2,3-dichloro-6-fluorophenyl)ethoxy]-1,3-benzothiazol-2-yl}-3-[2-(4-methylpiperazin-1-yl)ethyl]urea] yielded a melting point of 105 to 110 °C. For the same molecule, on MET, the IC50 was below 0.5 µM.
On the same counts, the results for `CC(Oc1ccc2nc(NC(=O)NCCC3CCCN3C)sc2c1)c1c(F)ccc(Cl)c1Cl` (stereo not shown) [Example 110, 1-{6-[1-(2,3-dichloro-6-fluorophenyl)ethoxy]-1,3-benzothiazol-2-yl}-3-[2-(1-methylpyrrolidin-2-yl)ethyl]urea] are 102 to 105 °C and below 0.5 µM.
With `CC(Oc1cc2sc(NC(=O)NCCN3CCOCC3)nc2cc1F)c1c(F)ccc(Cl)c1Cl` (stereo not shown) [Example 111, 1-{6-[1-(2,3-dichloro-6-fluorophenyl)ethoxy]-5-fluoro-1,3-benzothiazol-2-yl}-3-[2-(morpholin-4-yl)ethyl]urea], the melting point was 220 to 225 °C. Also, on MET, the concentration for half-maximal inhibition (IC50) was in the range of 0.5 to 10 µM.
On to `CC(Oc1cc2sc(NC(=O)NCCCN3CCCC3=O)nc2cc1F)c1c(F)ccc(Cl)c1Cl` (stereo not shown) [Example 114, 1-{6-[1-(2,3-dichloro-6-fluorophenyl)ethoxy]-5-fluoro-1,3-benzothiazol-2-yl}-3-[3-(2-oxopyrrolidin-1-yl)propyl]urea], for which the melting point is 195 °C. Further, at MET, the IC50 is below 0.5 µM.
The molecule `CC(Oc1cc2sc(NC(=O)NCCN3CCN(C)CC3)nc2cc1F)c1c(F)ccc(Cl)c1Cl` (stereo not shown) [Example 115, 1-{6-[1-(2,3-dichloro-6-fluorophenyl)ethoxy]-5-fluoro-1,3-benzothiazol-2-yl}-3-[2-(4-methylpiperazin-1-yl)ethyl]urea] gave a melting point of 120 °C. Further, the IC50 at MET is below 0.5 µM.
For `CC(Oc1cc2sc(NC(=O)NCCN3CCCC3)nc2cc1F)c1c(F)ccc(Cl)c1Cl` (stereo not shown) [Example 118, 1-{6-[1-(2,3-dichloro-6-fluorophenyl)ethoxy]-5-fluoro-1,3-benzothiazol-2-yl}-3-[2-(pyrrolidin-1-yl)ethyl]urea] the same measures were 191 °C and below 0.5 µM.
For `CC(Oc1ccc2nc(NC(=O)NCCN3CCCC3)sc2c1)c1c(F)ccc(Cl)c1Cl` (stereo not shown) [Example 120, 1-{6-[1-(2,3-dichloro-6-fluorophenyl)ethoxy]-1,3-benzothiazol-2-yl}-3-[2-(pyrrolidin-1-yl)ethyl]urea] the same measures were 110 to 115 °C and below 0.5 µM.
For `Cc1ccc(F)c(C(C)Oc2ccc3nc(NC(=O)NCCN4CCOCC4)sc3c2)c1F` (stereo not shown) [Example 123, 1-{6-[1-(2,6-difluoro-3-methylphenyl)ethoxy]-1,3-benzothiazol-2-yl}-3-[2-(morpholin-4-yl)ethyl]urea] the same measures were 92 to 95 °C and 0.5 to 10 µM.
Molecule `CC(Oc1ccc2nc(NC(=O)NCCN3CCOCC3)sc2c1)c1c(Cl)ccc(Cl)c1Cl` (stereo not shown) [Example 124, 1-[2-(morpholin-4-yl)ethyl]-3-{6-[1-(2,3,6-trichlorophenyl)ethoxy]-1,3-benzothiazol-2-yl}urea] yielded a melting point of 189 °C. The same molecule displayed an IC50 at MET below 0.5 µM.
`CC(Oc1ccc2nc(NC(=O)NCCN3CCCC3)sc2c1)c1c(Cl)ccc(Cl)c1Cl` (stereo not shown) [Example 125, 1-[2-(pyrrolidin-1-yl)ethyl]-3-{6-[1-(2,3,6-trichlorophenyl)ethoxy]-1,3-benzothiazol-2-yl}urea] displayed a melting point of 189 °C. Further, the IC50 on MET was in the range of 0.5 to 10 µM.
On the same counts, the results for `CC(Oc1cc2sc(NC(=O)NCCN3CCCC3)nc2cc1F)c1c(Cl)ccc(Cl)c1Cl` (stereo not shown) [Example 126, 1-{5-fluoro-6-[1-(2,3,6-trichlorophenyl)ethoxy]-1,3-benzothiazol-2-yl}-3-[2-(pyrrolidin-1-yl)ethyl]urea] are 103 to 107 °C and 0.5 to 10 µM.
On to `CNCCCNC(=O)Nc1nc2cc(F)c(OC(C)c3c(Cl)ccc(F)c3Cl)cc2s1` (stereo not shown) [Example 127, 1-{6-[1-(2,6-dichloro-3-fluorophenyl)ethoxy]-5-fluoro-1,3-benzothiazol-2-yl}-3-[3-(methylamino)propyl]urea], for which the melting point was found to be 183 °C. For the same molecule, the IC50 against MET is below 0.5 µM.
Turning to `CC(Oc1cc2sc(NC(=O)NCCCN)nc2cc1F)c1c(Cl)ccc(F)c1Cl` (stereo not shown) [Example 128, 1-(3-aminopropyl)-3-{6-[1-(2,6-dichloro-3-fluorophenyl)ethoxy]-5-fluoro-1,3-benzothiazol-2-yl}urea], the melting point turned out to be 163 °C. On MET, this molecule gave an IC50 below 0.5 µM.
Turning to `CC(Oc1cc2sc(NC(=O)NCC(=O)N3CCN(C)CC3)nc2cc1F)c1c(Cl)ccc(F)c1Cl` (stereo not shown) [Example 129, 1-{6-[1-(2,6-dichloro-3-fluorophenyl)ethoxy]-5-fluoro-1,3-benzothiazol-2-yl}-3-[2-(4-methylpiperazin-1-yl)-2-oxoethyl]urea], the melting point lay in the range of 235 to 238 °C. Also, on MET, the concentration for half-maximal inhibition (IC50) is below 0.5 µM.
